Columns and labels:
[1] = system: MET; assay: MET activation and downstream signaling in DU145 cells (immunoblotting); format: cell-based; conditions: 30 minutes; for fibroblast-induced MET activation and signaling / MET activation induced by active HGF: serum-starved DU145 cells, SRI 31215 10 μM, JNJ 38877605 1 μM; for fibroblast-induced MET activation and signaling: 18Co conditioned media
Protocol: Figure 2 SRI 31215 inhibits the crosstalk between tumor cells and fibroblasts A. Inhibition of fibroblast-induced oncogenic signaling in tumor cells by SRI 31215. Serum-starved DU145 cells were treated with recombinant HGF or conditioned media from 18Co cells alone or in the presence of SRI 31215 (10 μM) or JNJ 38877605 (1 μM) for 30 minutes. The levels of pMET, pGab1, pAKT, pERK, and pSTAT3 were determined by immunoblotting. Specific bands for pMET and pGab1 are indicated by asterisks. B. Inhibition of fibroblast-induced cell scattering by SRI 31215. Scattering of DU145 cells was induced with recombinant HGF or with conditioned media from 18Co fibroblasts in the presence of SRI 31215 (10 μM) or JNJ 38877605 (1 μM) as indicated. Images were taken 24 hours after treatment.
(§1) Immunoblotting was performed using standard procedures. Membranes were blocked with 5% non-fat milk for 1 hour at RT, and incubated with primary antibodies overnight at 4°C. Primary antibodies used were anti-HGF (R&D Systems), anti-MET, anti-p-MET, anti-p-GAB1, anti-p-AKT, anti-p-ERK1/2, anti-vimentin (Cell Signaling Technology), anti-p-STAT3 (Upstate Cell Signaling Solutions), anti-E-cadherin (BD Transduction Laboratories), anti-β-actin (Sigma). Following washing with TBS-T buffer, membranes were incubated with horseradish peroxidase-conjugated secondary antibodies for 1 hour and then washed with TBS-T. Immunoblots were developed using the chemiluminescent detection system with ECL (Amersham). Protein loading was normalized by probing blots for the expression of β-actin.
Supplementary Figure S2: Dose-dependent inhibition of fibroblast induced MET activation by SRI 31215. DU145 cells were serum-starved and were treated with conditioned medium from 18Co fibroblasts for 30 minutes in the absence or the presence of increasing concentrations of SRI 31215 as indicated. The levels of pERK1/2, pAKT, pSTAT3 and β-actin were determined by […]
(also on this page, place not known: www.impactjournals.com/oncotarget/ Oncotarget, Materials 2016 Supplementary) […]

[2] = system: HT29 cells; assay: Viability of HT29 cells with EGFR inhibitor; format: cell-based; conditions: HT29 cells (HGF-), gefitinib 5 μM; SRI 31215 10 μM, JNJ 38877605 1 μM
Protocol: Cell titer-glo luminescent cell viability assay kit was purchased from Promega. […] For clonogenic assay, cells were seeded in 6-well plates at a density of 400 cells per well, serum starved overnight, and treated as indicated. After colony formation (8-12 days), cells were stained with crystal violet and the number of colonies was determined using ImageQuantTL (GE Health Care Life Sciences).
Supplementary Figure S3: Inhibition of HGF/MET signaling sensitizes HGF-producing RKO colon cancer cells to gefitinib. A. RKO cells (HGF+) and B. HT29 (HGF-) cells were treated with gefitinib (5 μM) in the absence or the presence of SRI 31215 (10 μM) or JNJ 38877605 (1 μM) as indicated and viability was determined 24 and 72 hours after treatment. # indicates statistical significance compared to samples treated with gefitinib alone as determined by Students’ t-test (p<0.05).
(also on this page, place not known: www.impactjournals.com/oncotarget/ Oncotarget, Materials 2016 Supplementary (HGF +) (HGF -)) […]

[3] = system: DU145 cells; assay: EMT markers E-cadherin and vimentin (immunofluorescence, immunoblotting); format: cell-based; conditions: 24 hours, SRI 31215 10 μM, JNJ 38877605 1 μM; for fibroblast-induced expression of vimentin / fibroblast-induced inhibition of E-cadherin: 18Co conditioned media
Protocol: Figure 3 SRI 31215 inhibits fibroblast-induced EMT in DU145 cells Cells were stimulated with HGF or 18Co conditioned media for 24 hours in the absence or presence of SRI 31215 (10 μM) or JNJ 38877605 (1 μM) as indicated. The expression of E-cadherin was monitored by immunofluorescence A. The levels of E-cadherin and vimentin were also determined by immunoblotting B.
as §1
Cells were seeded at 1×10^3 cells per well in chamber slides. Following overnight serum-starvation, cells were treated with recombinant HGF (10 ng/ml) or conditioned media prepared from fibroblasts (50%) in the presence or absence of SRI 31215 (10 μM) or JNJ 38877605 (1 μM) for 24 hours. Cells were washed with PBS, fixed in ice-cold methanol/acetic acid solution [95:5 (v/v)] for 20 minutes at-20°C and incubated with anti-E-cadherin antibodies overnight at 4°C. Slides were washed with PBS, incubated with Alexa Fluor 568 conjugated secondary antibody for 1 hour at 37°C and examined with a fluorescent microscope.

[4] = system: DiFi cells; assay: Proliferation of DiFi cells induced by HGF or fibroblast conditioned medium; format: cell-based; conditions: 48 hours; for fibroblast-induced proliferation: fibroblast conditioned medium
Protocol: Cell lysates from EBC cells were used as control for pMET. B. DiFi cells were cultured in the presence of
HGF or fibroblast conditioned medium in the absence or the presence of JNJ38877605 or SRI 31215 for 48 hours. Neutralization of HGF
in fibroblast conditioned medium by anti-HGF antibodies inhibits growth promoting activity of fibroblasts (data not shown). […]

[5] = biological target: T1, recombinant human HGFA (Homo sapiens, UniProt Q04756); assay: Proteolytic activation of pro-HGF by HGFA (immunoblotting); format: biochemical; conditions: SRI 31215 10 μM, HAI-1 20 nM, HGFA 1 nM
T1 construct: purchased R&D Systems
T1 sequence (Q04756 408-655 limits assumed): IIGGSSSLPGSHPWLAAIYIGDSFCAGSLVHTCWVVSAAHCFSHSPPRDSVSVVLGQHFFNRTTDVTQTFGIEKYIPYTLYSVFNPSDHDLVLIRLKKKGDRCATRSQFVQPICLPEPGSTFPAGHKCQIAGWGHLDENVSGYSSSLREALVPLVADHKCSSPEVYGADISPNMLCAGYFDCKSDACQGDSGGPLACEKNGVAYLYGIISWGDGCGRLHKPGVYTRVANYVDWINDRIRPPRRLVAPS
T1 sequence (Q04756 373-407 partner limits assumed): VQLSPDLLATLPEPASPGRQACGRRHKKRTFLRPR
Protocol: Recombinant human HAI-1, recombinant human HGFA, and recombinant human HGF propeptide (pro-HGF) were purchased from R&D Systems. SRI 31215 (10 μM) or recombinant human HAI-1 (20 nM) were mixed with activated recombinant human HGFA pro-peptide (1nM) in TNC buffer (pH 8.0) and incubated at room temperature for 30 minutes. Recombinant human pro-HGF (40 ng) was added and incubated at 37°C for 1 hour. The reaction was stopped by SDS-PAGE gel sample buffer and samples were boiled and separated by 12% PAGE. Proteins were transferred onto nitrocellulose membrane, blocked with 5% milk and immunoblotted using antibodies that recognize pro-HGF as well as α and β chains of activated HGF.

SMILES	fibroblast-induced MET activation and signaling [1]	MET activation induced by active HGF [1]	response to EGFRi [2]	fibroblast-induced expression of vimentin [3]	fibroblast-induced inhibition of E-cadherin [3]	expression of E-cadherin in HGF-treated cells [3]	proliferation induced by recombinant, active HGF [4]	fibroblast-induced proliferation [4]	fibroblast-induced ERK1/2, AKT and STAT3 activation ([1]; DU145 cells, 18Co conditioned medium, increasing concentrations, dose-dependent)	HGFA-induced cleavage of pro-HGF into alpha and beta chains [5]
Cn1cc(-c2ccc3nnc(C(F)(F)c4ccc5ncccc5c4)n3n2)cn1 [JNJ 38877605, reference compound]	prevented	prevented	did not improve	prevented	prevented	restored	prevented	prevented	–	–
CC1CN(CC2CCN(Cc3ccccc3)CC2)C(=O)N(c2cccc(C(=N)N)c2)C1 (centres unmarked) [SRI 31215, 3-(3-((1-benzylpiperidin-4-yl)methyl)-5-methyl-2-oxotetrahydropyrimidin-1(2H)-yl)benzimidamide]	prevented	did not prevent	did not improve	prevented	prevented	–	did not influence	as efficient as JNJ 38877605 in preventing	inhibited	inhibited

Source: article PMC5045412, “Inhibition of pro-HGF activation by SRI31215, a novel approach to block oncogenic HGF/MET signaling” (Oncotarget, 2016)
